In ChEMBL document CHEMBL3885881, “DrugMatrix”:

Species: Rattus norvegicus
Experiment: DrugMatrix - Regimen: Daily Repeat
Type: toxicity, organism-based, Sprague-Dawley
Set-up: regimen Daily Repeat, gender Male, age 6-8 weeks
Settings: in vivo, po, 8 mg/kg, route oral GAVAGE, dose level High, vehicle .5 % CMC; for ABSOLUTE BASOPHIL / ABSOLUTE EOSINOPHIL / ABSOLUTE LYMPHOCYTE / ABSOLUTE MONOCYTE / ABSOLUTE SEGMENTED NEUTROPHIL / BASOPHIL / EOSINOPHIL / ERYTHROCYTE COUNT / HEMATOCRIT / HEMOGLOBIN / LEUKOCYTE COUNT / LYMPHOCYTE / MEAN CORPUSCULAR HEMOGLOBIN / MEAN CORPUSCULAR HEMOGLOBIN CONCENTRATION / MEAN CORPUSCULAR VOLUME / MONOCYTE / NEUTROPHIL / NUCLEATED RED BLOOD CELLS / PLATELET COUNT: tissue Blood
[1] = 72 h, tissue Plasma, time 3 day
[2] = 120 h, tissue Plasma, time 5 day

SMILES: C=C1CC[C@H](O)C/C1=C/C=C1\CCC[C@]2(C)[C@@H]([C@H](C)CCCC(C)C)CC[C@@H]12 [CHOLECALCIFEROL]
- ABSOLUTE BASOPHIL (72 h, time 3 day): 0 CELLS/uL
- ABSOLUTE EOSINOPHIL (72 h, time 3 day): 42 CELLS/uL
- ABSOLUTE LYMPHOCYTE (72 h, time 3 day): 8592.67 CELLS/uL
- ABSOLUTE MONOCYTE (72 h, time 3 day): 336 CELLS/uL
- ABSOLUTE SEGMENTED NEUTROPHIL (72 h, time 3 day): 5029.33 CELLS/uL
- BASOPHIL (72 h, time 3 day): 0%
- EOSINOPHIL (72 h, time 3 day): 0.33%
- ERYTHROCYTE COUNT (72 h, time 3 day): 5.75 x10E6/uL
- HEMATOCRIT (72 h, time 3 day): 36.93%
- HEMOGLOBIN (72 h, time 3 day): 14.13 G/DL
- LEUKOCYTE COUNT (72 h, time 3 day): 14 x10E3/uL
- LYMPHOCYTE (72 h, time 3 day): 61.67%
- MEAN CORPUSCULAR HEMOGLOBIN (72 h, time 3 day): 24.7 pg
- MEAN CORPUSCULAR HEMOGLOBIN CONCENTRATION (72 h, time 3 day): 38.27 G/DL
- MEAN CORPUSCULAR VOLUME (72 h, time 3 day): 64.53 fL
- MONOCYTE (72 h, time 3 day): 2.33%
- NEUTROPHIL (72 h, time 3 day): 35.67%
- NUCLEATED RED BLOOD CELLS (72 h, time 3 day): 0.33 /100WBC
- PLATELET COUNT (72 h, time 3 day): 1172.33 x10E3/uL
- ALANINE AMINOTRANSFERASE [1]: 38.67 u/L
- ALBUMIN [1]: 4 G/DL
- ALKALINE PHOSPHATASE [1]: 218 u/L
- ASPARTATE AMINOTRANSFERASE [1]: 93 u/L
- BLOOD UREA NITROGEN [1]: 15.67 mg/dL
- CARBON DIOXIDE [1]: 25 mmol/L
- CHLORIDE [1]: 99.67 MEQ/L
- CHOLESTEROL [1]: 85.33 mg/dL
- CREATINE PHOSPHOKINASE [1]: 273 u/L
- CREATININE [1]: 0.19 mg/dL
- GLUCOSE [1]: 119.67 mg/dL
- LACTATE DEHYDROGENASE [1]: 381 u/L
- LIPASE [1]: 8.33 u/L
- PHOSPHORUS [1]: 12.67 mg/dL
- POTASSIUM [1]: 6.05 MEQ/L
- SODIUM [1]: 144.53 MEQ/L
- TOTAL BILIRUBIN [1]: 0.1 mg/dL
- TOTAL PROTEIN [1]: 6.3 G/DL
- URIC ACID [1]: 1.7 mg/dL
- ABSOLUTE BASOPHIL (120 h, time 5 day): 0 CELLS/uL
- ABSOLUTE EOSINOPHIL (120 h, time 5 day): 61.33 CELLS/uL
- ABSOLUTE LYMPHOCYTE (120 h, time 5 day): 15719.67 CELLS/uL
- ABSOLUTE MONOCYTE (120 h, time 5 day): 721.33 CELLS/uL
- ABSOLUTE SEGMENTED NEUTROPHIL (120 h, time 5 day): 1931 CELLS/uL
- BASOPHIL (120 h, time 5 day): 0%
- EOSINOPHIL (120 h, time 5 day): 0.33%
- ERYTHROCYTE COUNT (120 h, time 5 day): 6.73 x10E6/uL
- HEMATOCRIT (120 h, time 5 day): 40.8%
- HEMOGLOBIN (120 h, time 5 day): 16.17 G/DL
- LEUKOCYTE COUNT (120 h, time 5 day): 18.43 x10E3/uL
- LYMPHOCYTE (120 h, time 5 day): 84.33%
- MEAN CORPUSCULAR HEMOGLOBIN (120 h, time 5 day): 24 pg
- MEAN CORPUSCULAR HEMOGLOBIN CONCENTRATION (120 h, time 5 day): 39.67 G/DL
- MEAN CORPUSCULAR VOLUME (120 h, time 5 day): 60.73 fL
- MONOCYTE (120 h, time 5 day): 4%
- NEUTROPHIL (120 h, time 5 day): 11.33%
- NUCLEATED RED BLOOD CELLS (120 h, time 5 day): 0.33 /100WBC
- PLATELET COUNT (120 h, time 5 day): 1207.33 x10E3/uL
- ALANINE AMINOTRANSFERASE [2]: 32.67 u/L
- ALBUMIN [2]: 3.77 G/DL
- ALKALINE PHOSPHATASE [2]: 216 u/L
- ASPARTATE AMINOTRANSFERASE [2]: 95.67 u/L
- BLOOD UREA NITROGEN [2]: 30.67 mg/dL
- CARBON DIOXIDE [2]: 29.33 mmol/L
- CHLORIDE [2]: 97 MEQ/L
- CHOLESTEROL [2]: 84.33 mg/dL
- CREATINE PHOSPHOKINASE [2]: 292 u/L
- CREATININE [2]: 0.31 mg/dL
- GLUCOSE [2]: 184 mg/dL
- LACTATE DEHYDROGENASE [2]: 195.33 u/L
- LIPASE [2]: 8 u/L
- PHOSPHORUS [2]: 12.17 mg/dL
- POTASSIUM [2]: 6.13 MEQ/L
- SODIUM [2]: 142.43 MEQ/L
- TOTAL BILIRUBIN [2]: 0.1 mg/dL
- TOTAL PROTEIN [2]: 6.37 G/DL
